Earlier results on 4 compounds are cited in PMC9923514 (Journal of chemical information and modeling, 2022).

One data set has as its target ZIKV NS2B-NS3pro (Zika virus, UniProt A0A024B7W1). The following applies: read-out: NS2B-NS3pro IC50; allosteric inhibitor.
The target of the next data set is ZIKV NS5 RdRp (Zika virus, UniProt A0A024B7W1). The following applies: for IC50: read-out: NS5 RdRp IC50.
Chain of ZIKV NS5 RdRp (A0A024B7W1 2521-3423): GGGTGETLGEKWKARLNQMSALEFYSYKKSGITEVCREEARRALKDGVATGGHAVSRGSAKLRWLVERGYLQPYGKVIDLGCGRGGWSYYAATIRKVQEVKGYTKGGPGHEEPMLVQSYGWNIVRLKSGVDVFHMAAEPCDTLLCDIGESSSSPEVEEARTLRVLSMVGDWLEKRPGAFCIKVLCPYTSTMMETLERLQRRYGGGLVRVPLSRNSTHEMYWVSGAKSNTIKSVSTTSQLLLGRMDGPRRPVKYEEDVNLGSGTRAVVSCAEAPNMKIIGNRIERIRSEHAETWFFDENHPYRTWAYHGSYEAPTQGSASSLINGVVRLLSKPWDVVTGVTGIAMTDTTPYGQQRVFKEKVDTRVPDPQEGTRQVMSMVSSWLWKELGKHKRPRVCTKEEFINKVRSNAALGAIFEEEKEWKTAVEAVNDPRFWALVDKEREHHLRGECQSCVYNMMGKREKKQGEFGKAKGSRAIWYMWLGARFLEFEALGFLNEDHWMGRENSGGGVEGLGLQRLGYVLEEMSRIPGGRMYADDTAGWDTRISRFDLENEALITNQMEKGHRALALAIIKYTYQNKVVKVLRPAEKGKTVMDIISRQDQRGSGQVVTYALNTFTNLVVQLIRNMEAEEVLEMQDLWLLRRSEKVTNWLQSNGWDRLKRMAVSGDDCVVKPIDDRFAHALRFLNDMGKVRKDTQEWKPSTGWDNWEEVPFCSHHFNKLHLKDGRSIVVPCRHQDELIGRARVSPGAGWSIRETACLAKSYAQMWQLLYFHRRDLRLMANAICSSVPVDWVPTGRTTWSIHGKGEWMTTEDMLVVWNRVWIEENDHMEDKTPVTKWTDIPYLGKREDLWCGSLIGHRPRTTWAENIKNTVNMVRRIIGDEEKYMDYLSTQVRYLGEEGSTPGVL

Chain of ZIKV NS2B-NS3pro (A0A024B7W1 1503-1680): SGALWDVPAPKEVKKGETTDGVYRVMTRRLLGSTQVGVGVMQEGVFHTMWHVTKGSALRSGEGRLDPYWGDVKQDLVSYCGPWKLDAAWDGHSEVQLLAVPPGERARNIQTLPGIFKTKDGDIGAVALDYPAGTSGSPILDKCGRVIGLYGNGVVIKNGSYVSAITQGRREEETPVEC
Chain of ZIKV NS2B-NS3pro (A0A024B7W1 1373-1502): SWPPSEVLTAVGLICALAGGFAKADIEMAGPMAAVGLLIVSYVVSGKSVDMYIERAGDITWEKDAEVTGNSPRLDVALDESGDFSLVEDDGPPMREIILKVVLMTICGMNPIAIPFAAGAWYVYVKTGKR

With `Nc1cc(N)c(N=Nc2ccc(S(=O)(=O)Nc3nccs3)cc2)cc1N=Nc1ccc(S(=O)(=O)Nc2nccs2)cc1` [NSC86314], the IC50 – broadly, the midpoint of a concentration-inhibition curve – on ZIKV NS2B-NS3pro is 1120 ± 110 nM.

With `O=C(NC(=S)Nc1ccc(N2CCN(C(=O)c3cccs3)CC2)cc1)c1sc2ccccc2c1Cl` [TBP, 3-chloro-N-[({4-[4-(2-thienylcarbonyl)-1-piperazinyl]phenyl}amino)carbonothioyl]-1-benzothiophene-2-carboxamide], the IC50 at ZIKV NS5 RdRp was 94 nM.

As to `O[C@H]1[C@H]2c3cc4c(cc3CN3CCC(=C[C@@H]1O)[C@H]23)OCO4` [lycorine], the “NS5 RdRp inhibition” value at ZIKV NS5 RdRp (at 50 μM) is reported as 60%.

On to `CCCCCOCc1c(Nc2ccc(S(N)(=O)=O)cc2)nc(N2CCOCC2)nc1C(=O)NCCOc1ccccc1` [2-morpholino-5-((pentyloxy)methyl)-N-(2-phenoxyethyl)-6-((4-sulfamoylphenyl)amino)pyrimidine-4-carboxamide], for which the IC50 on ZIKV NS5 RdRp was 2400 nM.
